The values below come from patent EP0652009A1, “Identification and use of protease inhibitors” (ELI LILLY AND COMPANY, priority 1993, dated 1995).

Test [1] relates to βAP production. The test can be described thus: Assay 4: βAP production inhibition (cellular assay, ELISA of conditioned media, normalised to MTT). The test is classed as cell-based, human; Chinese hamster. As to conditions: compound at 10 µg/mL; 293 751 SWE and CHO 751 SWE cells (table does not say which); βAP ELISA divided by MTT result, relative to drug-free control; mean and standard deviation of at least six replicate assays. The source says:
The test system used to measure the βAP production inhibition activity is typically a cellular assay or an animal model. Preferably, the βAP production inhibition activity is obtained by direct measurement of βAP production in a cellular assay, as described in WO9410569, the full disclosure of which is incorporated herein by reference. This assay is exemplified in Assay 4, below.
Two cell lines (human kidney cell line 293 and Chinese hamster ovary cell line CHO) were stably transfected with the gene for APP-751 containing the double mutation Lys₆₅₁-Met₆₅₂ to Asn₆₅₁-Leu₆₅₂ (APP-751 numbering) commonly called the Swedish mutation using the method described in Citron et al., (1992) Nature 360:672-674. The transfected cell lines were designated as 293 751 SWE and CHO 751 SWE, and were plated in Corning 96 well plates at 2.5x10⁴ or 1x10⁴ cells per well respectively in Dulbecco's minimal essential media plus 10% fetal bovine serum. Following overnight incubation at 37°C in an incubator equilibrated with 10% carbon dioxide (CO₂), the media were removed and replaced with 200 µL per well of media containing an aspartyl protease inhibitor. After a two hour pretreatment period, the media were again removed and replaced with fresh media containing the aspartyl protease inhibitor and the cells were incubated for an additional two hours.
After treatment, plates were centrifuged in a Beckman GPR at 1200 rpm for five minutes at room temperature to pellet cellular debris from the conditioned media. From each well, 100µL of conditioned media were transferred into an ELISA plate precoated with antibody 266 against βAP-13-28 (Seubert et al., supra.) and stored at 4°C overnight. An ELISA assay employing labelled antibody 6C6 (against βAP-1-16) was run the next day to measure the amount of βAP produced.
Cytotoxic effects of the compounds were measured by a modification of the method of Hansen et al., (1989) J. Immun. Meth. 119:203-210. To the cells remaining in the tissue culture plate, was added 25 µL of a 3,(4,5-dimethylthiazol-2-yl)2,5-diphenyltetrazolium bromide (MTT) stock solution (5 mg/mL) to a final concentration of 1 mg/mL. Cells were incubated at 37°C for one hour, and cellular activity was stopped by the addition of an equal volume of MTT lysis buffer (20% w/v sodium dodecylsulfate in 50% DMF, pH 4.7). Complete extraction was achieved by overnight shaking at room temperature. The difference in the OD562nm and the OD650nm was measured in a Molecular Devices UVmax microplate reader as an indicator of the cellular viability.
The results of the βAP ELISA were fit to a standard curve and expressed as ng/mL βAP peptide. In order to normalize for cytotoxicity, these βAP results were divided by the MTT results and expressed as a percentage of the results from a drug-free control.
The compounds prepared above in Examples 9, 12, 13, 20-23, 23A, 24, 30, 41-43, 45, and 48 were assayed for βAP production inhibition activity in cells at 10 µg/mL using Assay 4. The results presented in Assay Table 4, below, are the mean and standard deviation of at least six replicate assays. Assay Table 4
For orientation: ELISA stands for enzyme-linked immunosorbent assay.

Test [2] concerns the target Human liver cathepsin D (Homo sapiens, UniProt P07339). Briefly: Assay 2: cathepsin D inhibition activity (non-cellular fluorometric assay). The format is biochemical. Also on record: Human liver cathepsin D (Athens Research and Technology, Athens, GA); purchased Athens Research and Technology, Athens, GA. As to conditions: compound at 10 µg/mL; percent inhibition of control activity; mean and standard deviation of at least four replicate assays. Here is the method: A second non-cellular assay for determining in vitro aspartyl protease inhibitory activity utilizes a microtiter plate, where a suitable aspartyl protease, such as cathepsin D is added to each well together with controls. A suitable fluorometric substrate is added to each well. The resultant reaction mixture is allowed to react for a preselected time, e.g., 30 minutes. After enzyme activity is terminated, the substrate or its product may be determined fluorometrically and then the protease inhibition activity may be calculated based on the rates of substrate turnover. This assay is exemplified in Assay 2, below.
A fluorometric assay was adapted from the method disclosed by Murakami et al., (1981) Anal. Biochem. 110:232-239 for measuring renin activity. Human liver cathepsin D (Athens Research and Technology, Athens, GA) was diluted in assay buffer, 200mM NaOAc, pH 4.5, 150mM NaCl to 500 ng/mL and then 100 µL of this cathepsin D solution was added to each well of a 96 well plate with the exception of control wells which received just 100 µL of assay buffer. Compound stocks were prepared by dissolving an aspartyl protease inhibitor in DMSO for each concentration tested in the assay and then 5 µL of compound stock was added to each of the wells prepared above. Blank and enzyme control wells each received 5 µL of the DMSO vehicle.
Following a ten minute incubation at 25°C to allow enzyme/compound interaction, 5 µL of 500µM fluorometric substrate (Suc-Arg-Pro-Phe-His-Leu-Leu-Val-Try-AMC [SEQ ID NO:4], Bachem Biosciences, Philadelphia, PA) in DMSO was added per well to initiate the reaction. After incubation at 37°C for 30 minutes, cathepsin D activity was terminated by the addition of 100 µL per well of 400 mU/mL microsomal leucine aminopeptidase (EC 3.4.11.2, Sigma, St. Louis, MO) in 1M Tris-HCl, pH 8.0.
The plates were then analyzed in a fluorometer (CytoFluor 2350, Millipore, Bedford, MA) with an excitation wavelength of 360nm and an emission wavelength of 460nm, in order to check for background fluorescence due to test compounds. Following a two hour incubation at 37°C, to allow the aminopeptidase to release the fluorophore, 7-amido-4-methylcoumarin (AMC) from the products of cathepsin D cleavage, the plates were again analyzed in the fluorometer. In order to check for potential false positives, i.e., inhibitors of microsomal leucine aminopeptidase, residual aminopeptidase activity was monitored directly in each well by the addition of 20 µL/well of 2.5mM Leu-pNA (Bachem Biosciences, Philadelphia, PA) in 10% DMSO. Aminopeptidase activity was measured as an increase in the absorbance at 405nm in a UVmax microplate reader (Molecular Devices, Menlo Park, CA).
The compounds prepared in Examples 9, 12, 13, 20-23, 23A, 24, 30, 41-43, 45, and 48 were assayed at 10 µg/mL for cathepsin D inhibition activity using Assay 2. Cathepsin D activity was linear under these conditions and the results are expressed as percent inhibition of the control activity in Assay Table 2, below. All results presented are the mean and standard deviation of at least four replicate assays. Assay Table 2

Test [3] deals with T1, Human brain cathepsin D (Homo sapiens, UniProt P07339).
T1 construct: Human brain cathepsin D was purified from frozen post-mortem cortex; from tissue; host or cells: human post-mortem brain cortex
T1 sequence (P07339 65-412): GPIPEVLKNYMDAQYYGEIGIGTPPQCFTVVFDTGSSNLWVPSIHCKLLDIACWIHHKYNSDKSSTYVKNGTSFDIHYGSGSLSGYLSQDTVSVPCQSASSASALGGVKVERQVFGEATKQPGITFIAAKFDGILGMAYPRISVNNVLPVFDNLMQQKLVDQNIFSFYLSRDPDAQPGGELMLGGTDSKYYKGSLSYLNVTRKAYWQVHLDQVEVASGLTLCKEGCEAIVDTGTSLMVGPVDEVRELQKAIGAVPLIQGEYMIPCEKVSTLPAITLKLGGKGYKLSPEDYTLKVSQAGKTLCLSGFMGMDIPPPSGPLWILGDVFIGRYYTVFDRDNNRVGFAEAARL
Briefly: Assay 1: cathepsin D inhibition activity (non-cellular assay, porcine renin tetradecapeptide substrate, RP-HPLC). The format is biochemical. As to conditions: purified human brain cathepsin D, pH 4.5, 44 µM porcine renin tetradecapeptide, 37°C. As to the method: An example of a non-cellular assay that may be used to determine in vitro aspartyl protease inhibitory activity reacts partially purified human brain cathepsin D with a substrate, e.g., porcine renin tetradecapeptide. The resultant reaction mixture is divided into portions and each portion is incubated for a different period of time. After the reaction is stopped, the turnover of substrate in each portion is determined using reverse-phase HPLC. Protease inhibition activity may be calculated based on the rates of substrate turnover. This assay is exemplified in Assay 1, below. Human brain cathepsin D was purified from frozen post-mortem cortex substantially in accordance with the method of Nixon and Morotta, (1984) J. Neurochem. 43:507-516. The cortex material was prepared and applied to a DEAE-Sepharose® column. The flow through fraction was dialyzed against 50mM Tris-HCl, pH 7.5, and applied to concanavalin A Sepharose® and eluted with 50mM Tris, pH 7.5, 0.5M methyl α-D-mannopyranoside. The eluted cathepsin D activity was dialyzed against 25mM Tris, pH 7.5, and stored at -40°C (Con A pool) until use. For each assay, 50 μL of the Con A pool was diluted to 270 μL in 200mM sodium citrate, pH 4.5, 150mM sodium chloride (NaCl), and incubated for 10 minutes at 4°C with 15 μL of compound stock diluted in dimethylsulfoxide (DMSO). The substrate, porcine renin tetradecapeptide ([…] [SEQ ID NO:3], Bachem Bioscience, Inc., Philadelphia, PA), was added to each reaction mixture to yield a final concentration of 44 μM in a total volume of 300 μL. The samples were incubated at 37°C for 0, 10, 20, or 30 minutes, and then boiled for 5 minutes to stop the reaction. The samples were centrifuged in a microcentrifuge for 10 minutes at 14,000 rpm at 4°C. After centrifugation, 200 μL of each reaction was injected onto […] column (Vydac, Hesperia, CA) with a Perkin Elmer ISS 100 autosampler and eluted with a gradient eluent of 0-50% CH3CN in 0.1% CF3CO2H at 2 mL/min. Peptide product peaks were monitored at 220nm with a Perkin Elmer LC 95 detector and integrated with Rainin Dynamax software in order to quantitate activity.

Non-standard residues stand in square brackets, D forms with d. Residues, ends and D or L forms follow the SMILES beside them. Sta = CC(C)C[C@H](N)[C@@H](O)CC(=O)O; N(iPr)Gly = CC(C)NCC(=O)O Some results are limits rather than exact numbers.

Sequence of Human liver cathepsin D (P07339 169-412 limits assumed): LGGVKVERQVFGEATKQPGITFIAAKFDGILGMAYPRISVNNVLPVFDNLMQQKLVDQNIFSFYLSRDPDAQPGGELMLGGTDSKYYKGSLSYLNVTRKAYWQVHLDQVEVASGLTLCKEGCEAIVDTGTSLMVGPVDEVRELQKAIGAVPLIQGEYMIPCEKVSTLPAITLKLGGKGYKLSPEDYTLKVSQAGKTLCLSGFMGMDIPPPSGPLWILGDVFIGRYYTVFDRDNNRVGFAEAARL
Sequence of Human liver cathepsin D (P07339 65-162 limits assumed): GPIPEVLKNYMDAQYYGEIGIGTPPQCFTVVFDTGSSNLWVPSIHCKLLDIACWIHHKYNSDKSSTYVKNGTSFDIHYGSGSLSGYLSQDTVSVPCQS

For `CC(C)[C@H](NC(=O)c1cnc2ccccc2n1)C(=O)N[C@@H](Cc1ccccc1)[C@H](O)Cc1ccccc1C(=O)NC(C)(C)C` [Example 12, [1S-(1R*,4R*,5S*)]-N-(1-Isopropyl-2-oxo-3-aza-4-phenylmethyl-5-hydroxy-6-(2-(1-t-butylamino-1-oxomethyl)phenyl)hexyl)-2-quinoxalinyl acetamide], the inhibition – broadly, the relative decrease from the control value, in per cent – at 10 µg/mL is 12.4 ± 6% in test [1] and 12.4 ± 3.7% in test [2]. For the compound `CC(C)[C@H](NC(=O)c1ccc2ccccc2c1)C(=O)N[C@@H](Cc1ccccc1)[C@H](O)Cc1ccccc1C(=O)NC(C)(C)C` [Example 13], the inhibition at 10 µg/mL in test [1] was 91.4 ± 3.9%; in test [2], 91.4 ± 0.4%. In the same order, the values of `CC(C)C[C@H](NC(=O)c1ccc2ccccc2n1)C(=O)N[C@@H](Cc1ccccc1)[C@H](O)Cc1ccccc1C(=O)NC(C)(C)C` [Example 20, [1S-(1R*,4R*,5S*)]-N-(1-(2-Methylpropyl)-2-oxo-3-aza-4-phenylmethyl-5-hydroxy-6-(2-(1-t-butylamino-1-oxomethyl)phenyl)hexyl)-quinolin-2-yl carboxamide] are 94.8 ± 3.1% and 94.8 ± 0.6%.

As to `CC(C)[C@H](NC(=O)OC(C)(C)C)C(=O)N[C@@H](Cc1ccccc1)[C@H](O)Cc1ccccc1C(=O)NC(C)(C)C` [Example 23A, [2R-(2R*,3S*,6S*)]-N-t-Butyl-2-[2-hydroxy-3-phenylmethyl-4-aza-5-oxo-6-N(t-butoxycarbonyl)amino-7-methyl]octyl benzamide], the figures for the inhibition at 10 µg/mL in test [1] and in test [2] were 32.5 ± 3.3% and 32.5 ± 4.7%, respectively. For the compound `CC[C@H](C)[C@H](NC(=O)C[C@H](O)[C@H](CC(C)C)NC(=O)CNC(C)C)C(=O)N[C@@H](C)C(=O)N[C@H](C(=O)O)[C@@H](C)O` [Example 44, (CH3)2CH-Gly-Sta-Ile-Ala-Thr-OH] (H-[N(iPr)Gly][Sta]IAT-OH), the IC50 (in general, the point on the concentration scale where inhibition reaches its midpoint) in test [3] is greater than 100 nM.

Regarding `CC(C)C[C@H](NC(=O)[C@@H](NC(=O)CNC(C)C)C(C)C)[C@@H](O)CC(=O)N[C@@H](C)C(=O)N[C@H](C(=O)O)[C@@H](C)O` [Example 46, (CH3)2CH-Gly-Val-Sta-Ala-Thr-OH] (H-[N(iPr)Gly]V[Sta]AT-OH), the IC50 in test [3] is greater than 250 nM. Same read-out and setting: next, `CC[C@H](C)[C@H](NC(=O)[C@@H](NC(=O)[C@@H](NC(=O)CNC(C)C)C(C)C)C(C)C)C(=O)N[C@@H](CC(C)C)[C@@H](O)CC(=O)N[C@H](C(=O)O)[C@@H](C)O` [Example 47, (CH3)2CH-Gly-Val-Val-Ile-Sta-Thr-OH] (H-[N(iPr)Gly]VVI[Sta]T-OH): greater than 250 nM. Turning to “[1S-(1R*,4R*,5S*)]-N-(1-(Propyl)-2-oxo-3-aza-4-phenylmethyl-5-hydroxy-6-(2-(1-t-butylamino-1-oxomethyl)phenyl)hexyl)-quinolin-2-yl carboxamide [Example 21]”, the “βAP Production Inhibition” value in test [1] is recorded as 78.3 ± 1.5%. For the same compound, the “Cathepsin D Inhibition” value in test [2] turned out to be 78.3 ± 3.8%.
